# Results taken from patent US20190218479A1, “Stabilized Liquid Peroxide Compositions” (Novozymes A/S, priority 2016, published 2019).
# What was measured:
# Assay type in all cases: physicochemical
# [1] = molecular target: T1, Subtilisin1 (Lederbergia lenta, UniProt P29600, M216S); assay: Residual activity of Subtilisin1 after storage in peroxide model detergents with or without subtilisin stabilizers (N,N-dimethylcasein/TNBS)
# [2] = molecular target: T1, Subtilisin1; assay: as above; details: model detergents with hydrogen peroxide, pH 7 and 9; summary of Example 2
# Source text: Chemicals used as buffers and substrates were commercial products of at least reagent grade. Subtilisin1 has the amino acid sequence as shown in SEQ ID NO: 2, which is a subtilisin having a M216 substitution according to the invention. Subtilisin2 has the amino acid sequence as shown in SEQ ID NO: 1, which is a reference subtilisin not covered by the invention. The stock solution of each subtilisin contains 4.4% w/w of active enzyme protein. Stabilizer1: Cbz-Gly-Ala-Tyr-H (C-terminal aldehyde), wherein Cbz is benzyloxycarbonyl; which is a subtilisin stabilizer according to the invention. When used in the examples below, Stabilizer1 was added to the subtilisin stock solution at a concentration of 0.28% w/w. Stabilizer2: Cbz-Gly-Ala-NHCH(CH2C6H4pOH)CH(OH)(OSO3)Na (hydrosulfite adduct of a C-terminal aldehyde) wherein Cbz is benzyloxycarbonyl; which is a subtilisin stabilizer according to the invention. When used in the examples below, Stabilizer2 was added to the subtilisin stock solution at a concentration of 0.35% w/w. Stabilizer3: MeOCO-Val-Ala-Leu-H (C-terminal aldehyde). When used in the examples below, Stabilizer3 was added to the subtilisin stock solution at a concentration of 0.28% w/w. Stabilizer4: 4-formyl-phenyl-boronic acid (4-FPBA); which is a reference protease stabilizer not covered by the invention. When used in the examples below, Stabilizer4 was added to the subtilisin stock solution at a concentration of 3.4% w/w.
# (§1) The compositions were prepared as shown in the examples and samples stored in closed vials for storage. Residual activity was measured by comparing activity in a stored sample at the time of taken out of incubation without freezing and comparing activity to a freshly prepared sample without peroxide and dividing activity in the stored sample with activity in the fresh sample.
# (§2) Activity analysis is performed by analysing protease activity by hydrolysis of N,N-dimethylcasein to produce a carboxylic acid and a primary amine compounds. The primary amines that are formed react, under alkaline conditions, with tri-nitrobenzenesulfonic acid (TNBS) to form a colored complex. The amount of colored complex that forms over the fixed reaction period at a constant temperature (530 seconds at 40° C.; complex absorbance is measured at 405 nm) is related to the amount of active protease present in the sample. The amount of colored product complex produced is compared to a standard curve based on known protease concentrations to calculate the amount of active protease in the detergent sample. The amount of protease activity at a specific time point is compared to the t=0 activity level to calculate the % active protease remaining.
# This study examined Subtilisin1 stability in the presence of hydrogen peroxide, with and without subtilisin stabilizers (Stabilizer4 and Stabilizer2) in two different model detergents at pH 7 and 9.
# [3] = Residual hydrogen peroxide after storage, permanganate titration; details: liquid peroxide composition in Table 1, 37° C., 4 weeks
# Experimental: Residual hydrogen peroxide (H2O2) was measured by permanganate titration (reduction of potassium permanganate by hydrogen peroxide in sulfuric acid).
# [4] = Stability of Subtilisin1 and Subtilisin2 in the liquid peroxide composition of Table 1 (residual protease activity, N,N-dimethylcasein/TNBS); details: liquid peroxide composition in Table 1 (0.8% H2O2, pH 7.0), 4 weeks
# Experimental: as §1, §2
# [5] = Subtilisin1 in “Mix Laundry” (Table 19, pH 7.5) no H2O2, no sodium salicylate, no polyDADMAC
# [6] = Subtilisin1 in “Mix Laundry” (Table 19, pH 7.5) with 1% H2O2, with sodium salicylate, with polyDADMAC
# [7] = Subtilisin1 in “NI pretreat” (Table 19, pH 7.0) with 1% H2O2, with sodium salicylate, with polyDADMAC
# [8] = Subtilisin1 in “NI pretreat” (Table 19, pH 7.0) without H2O2, no sodium salicylate, no polyDADMAC
# T1 sequence (P29600 whole entry M216S): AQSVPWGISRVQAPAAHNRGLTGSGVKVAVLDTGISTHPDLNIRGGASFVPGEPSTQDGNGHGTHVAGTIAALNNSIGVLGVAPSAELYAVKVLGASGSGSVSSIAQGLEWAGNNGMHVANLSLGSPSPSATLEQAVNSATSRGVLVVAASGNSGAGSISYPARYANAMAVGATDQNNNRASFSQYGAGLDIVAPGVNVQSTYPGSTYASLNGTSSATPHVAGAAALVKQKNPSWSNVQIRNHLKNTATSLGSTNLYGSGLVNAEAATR
Molecule,"Residual activity after storage for 2 weeks at 30° C. [1, 5]","Residual activity after storage for 2 weeks at 30° C. [1, 6]","Residual activity after storage for 2 weeks at 37° C. [1, 7]","Residual activity after storage for 2 weeks at 37° C. [1, 8]","stabilization of Subtilisin1, compared to Stabilizer4 [2]",Residual H2O2 after 4 weeks [3],% Subtilisin residual activity after 4 weeks ([4]; 22° C.),% Subtilisin residual activity after 4 weeks ([4]; 30° C.),% Subtilisin residual activity after 4 weeks ([4]; 37° C.)
"O=Cc1ccc(B(O)O)cc1 [Stabilizer4, 4-formyl-phenyl-boronic acid, reference compound]",86%,20%,11%,129%,,,,,
"O=BOB(O)OB(O)OB=O [borax, reference compound]",81%,43%,22%,117%,,,,,
Cbz-Gly-Ala-NHCH(CH2C6H4pOH)CH(OH)(OSO3)Na [Stabilizer2],83%,52%,61%,98%,much more effective stabilization,,,,
MeOCO-Val-Ala-Leu-H [Stabilizer3],83%,60%,64%,95%,,,,,
"Subtilisin2: subtilisin with amino acid sequence SEQ ID NO: 1, reference subtilisin not covered by the invention (protein, listed as Bacillus lentus) AQSVPWGISRVQAPAAHNRGLTGSGVKVAVLDTGISTHPDLNIRGGASFVPGEPSTQDGNGHGTHVAGTIAALNNSIGVLGVAPSAELYAVKVLGASGSGSVSSIAQGLEWAGNNGMHVANLSLGSPSPSATLEQAVNSATSRGVLVVAASGNSGAGSISYPARYANAMAVGATDQNNNRASFSQYGAGLDIVAPGVNVQSTYPGSTYASLNGTSMATPHVAGAAALVKQKNPSWSNVQIRNHLKNTATSLGSTNLYGSGLVNAEAATR",,,,,,95.8%,35%,33%,15%
